Laboratory results: patent publication US9834548B2, “Pyridazine compounds as JAK inhibitors” (Portola Pharmaceuticals, Inc., priority 2014, dated 2017)

Legend:
Assay type in all cases: biochemical
[1] = molecular target: JAK2 (Homo sapiens (Human), UniProt O60674); assay: Purified kinase assay (Z'-LYTE), JAK2; conditions: Table 1; read-out: JAK2 IC50
Protocol: (§1) JAK and TYK2 tyrosine phosphorylation activity is measured using the Z′-LYTE™ Technology developed by Invitrogen Corporation (Carlsbad, Calif.). For JAK1, JAK2 and JAK3 the Z′-LYTE™ Kinase Assay Kit-Tyr6 Peptide (part number PV4122) was used. For TYK2 the Z′-LYTE™ Kinase Assay Kit-Tyr6 Peptide (part number PV3192) was used. The Z′-LYTE™ biochemical assay employs a fluorescence resonance energy transfer (FRET) coupled-enzyme format and is based on the differential sensitivity of phosphorylated and non-phosphorylated peptides to proteolytic cleavage. The assay uses a synthetic peptide substrate that is labeled with a donor fluorophore (coumarin) and an acceptor fluorophore (fluorescein) that make up a FRET pair. In the primary reaction (the Kinase Reaction), the kinase transfers the γ-phosphate of ATP to a single tyrosine residue on the substrate, while the presence of a kinase inhibitor in the primary reaction suppresses phosphorylation. In the secondary reaction (the Development Reaction), a site-specific protease (the Development Reagent) is added. The development buffer quenches the Kinase Reaction, while the protease recognizes and cleaves non-phosphorylated Z′-LYTE™ peptide substrate. Cleavage disrupts FRET between the donor and acceptor fluorophores on the non-phosphorylated substrate, while uncleaved, phosphorylated substrate maintains FRET.
(§2) To test the ability of candidate molecules to inhibit JAK tyrosine phosphorylation activity, molecules are reconstituted in 100% DMSO and serially diluted 1:10 in polypropylene v-bottom microtiter plates. The candidate molecules are then diluted 1:25 into kinase buffer and 2.5 μl transferred into duplicate wells of a 384 well low volume black microtiter assay plate (Corning, USA). The final DMSO concentration in the assay is 1%. The kinase reaction contains 2.5 μl of a candidate molecule, 5 μl of catalytic domain recombinant Kinase enzyme+Tyr peptide substrate (Invitrogen, CA) and ATP (Invitrogen, CA). The kinase reaction is allowed to proceed for 1 hour at room temperature. The protease reaction is initiated by the addition of Development Reagent (Invitrogen, CA). After 1 hour incubation at room temperature the fluorescence is measured using a FlexStation plate reader (Molecular Devices, Sunnyvale, Calif.). The reader settings used are as follows: Fluorescence mode, endpoint, top read, excitation 400 nm, emission 445 nm and 520 nm, Auto Cutoff 435 nm and 515 nm, PMT sensitivity high, 6 reads per well Inhibition of JAK activity is calculated as the percent phosphorylation of substrate in the presence of inhibitor compared to the percent phosphorylation of substrate in the absence of inhibitor. IC50's were derived using Xlfit 4.3 (IDBS, UK), 4 parameter logistic model 205: Y=(A+((B−A)/(1+((C/x)^D)))).

[2] = molecular target: JAK1 (Homo sapiens (Human), UniProt P23458); assay: Purified kinase assay (Z'-LYTE), JAK1; conditions: Table 1; read-out: JAK1 IC50
Protocol: as §1, §2

[3] = molecular target: JAK3 (Homo sapiens (Human), UniProt P52333); assay: Purified kinase assay (Z'-LYTE), JAK3; conditions: Table 1; read-out: JAK3 IC50
Protocol: as §1, §2

JAK3, sequence (P52333 822-1111): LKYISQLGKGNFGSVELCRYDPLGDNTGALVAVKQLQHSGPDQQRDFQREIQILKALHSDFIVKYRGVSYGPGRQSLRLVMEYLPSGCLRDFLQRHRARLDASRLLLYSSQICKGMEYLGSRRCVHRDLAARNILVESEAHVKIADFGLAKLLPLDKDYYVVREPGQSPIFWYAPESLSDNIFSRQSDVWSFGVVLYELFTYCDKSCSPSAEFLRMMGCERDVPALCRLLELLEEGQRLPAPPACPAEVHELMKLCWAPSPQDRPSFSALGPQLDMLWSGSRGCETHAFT
JAK2, sequence (O60674 849-1124): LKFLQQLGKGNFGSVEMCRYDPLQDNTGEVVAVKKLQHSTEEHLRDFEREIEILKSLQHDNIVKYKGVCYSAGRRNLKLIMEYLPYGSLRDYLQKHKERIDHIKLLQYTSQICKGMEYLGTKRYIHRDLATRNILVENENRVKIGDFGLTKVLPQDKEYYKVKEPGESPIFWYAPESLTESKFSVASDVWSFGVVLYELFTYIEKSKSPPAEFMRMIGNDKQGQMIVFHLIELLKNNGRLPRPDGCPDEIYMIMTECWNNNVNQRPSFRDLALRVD
JAK1, sequence (P23458 875-1153): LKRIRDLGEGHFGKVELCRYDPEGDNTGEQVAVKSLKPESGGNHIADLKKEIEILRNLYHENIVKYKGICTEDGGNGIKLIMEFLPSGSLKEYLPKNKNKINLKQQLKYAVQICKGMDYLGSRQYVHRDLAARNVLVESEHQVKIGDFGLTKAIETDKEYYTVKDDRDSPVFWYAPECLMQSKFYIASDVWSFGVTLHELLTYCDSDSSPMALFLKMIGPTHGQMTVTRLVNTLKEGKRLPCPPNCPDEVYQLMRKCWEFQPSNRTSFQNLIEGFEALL

SMILES: NC(=O)c1nnc(Nc2ncc(C(=O)N3CCOCC3)s2)cc1NCc1cccc(F)c1 [Compound 77]
- IC50 [1]: > 1000 nM
- IC50 [2]: > 1000 nM
- IC50 [3]: 10 to 100 nM

SMILES: CC(=O)Nc1cccc(Nc2cc(NC3CCC3)c(C(N)=O)nn2)c1 [Compound 7, 6-((3-acetamidophenyl)amino)-4-(cyclobutylamino)pyridazine-3-carboxamide]
- IC50 [1]: 100 to 1000 nM
- IC50 [2]: > 1000 nM
- IC50 [3]: 100 to 1000 nM

SMILES: CC(=O)N1CCN(c2ccc(Nc3cc(NC(C)C)c(C(N)=O)nn3)cc2)CC1 [Compound 9]
- IC50 [1]: > 1000 nM
- IC50 [2]: > 1000 nM
- IC50 [3]: > 1000 nM

SMILES: N#Cc1ccc(N2CCC(Nc3cc(Nc4cnccn4)nnc3C(N)=O)CC2)nc1 [Compound 97]
- IC50 [1]: 1 to 10 nM
- IC50 [2]: 1 to 10 nM
- IC50 [3]: 1 to 10 nM

SMILES: CC(=O)N1CCN(c2ccc(Nc3cc(NCc4cccc(-c5cccnc5)c4)c(C(N)=O)nn3)cc2)CC1 [Compound 70]
- IC50 [1]: 100 to 1000 nM
- IC50 [2]: > 1000 nM
- IC50 [3]: 10 to 100 nM

SMILES: CCC(=O)N1CCN(c2ccc(Nc3cc(NCc4cc(F)cc(F)c4)c(C(N)=O)nn3)cc2)CC1 [Compound 31]
- IC50 [1]: 100 to 1000 nM
- IC50 [2]: > 1000 nM
- IC50 [3]: 1 to 10 nM

SMILES: CCn1cc(Nc2cc(NCc3cccc(F)c3)c(C(N)=O)nn2)cn1 [Compound 123]
- IC50 [1]: 100 to 1000 nM
- IC50 [2]: > 1000 nM
- IC50 [3]: 10 to 100 nM

SMILES: CCC(=O)N1CCN(c2ccc(Nc3cc(NCc4cccc(F)c4F)c(C(N)=O)nn3)cc2)CC1 [Compound 34]
- IC50 [1]: 10 to 100 nM
- IC50 [2]: > 1000 nM
- IC50 [3]: 1 to 10 nM

SMILES: CS(=O)(=O)Cc1ccc(Nc2cc(NCc3c(F)cccc3F)c(C(N)=O)nn2)cc1 [Compound 87]
- IC50 [1]: 100 to 1000 nM
- IC50 [2]: 100 to 1000 nM
- IC50 [3]: 1 to 10 nM

SMILES: NC(=O)c1nnc(Nc2cnn(CC3CC3)c2)cc1NCc1cccc2ccsc12 [Compound 117]
- IC50 [1]: 10 to 100 nM
- IC50 [2]: 100 to 1000 nM
- IC50 [3]: 10 to 100 nM

SMILES: NC(=O)c1nnc(Nc2ccc(N3CCOCC3)cn2)cc1NCc1cccc(F)c1 [Compound 64]
- IC50 [1]: 10 to 100 nM
- IC50 [2]: > 1000 nM
- IC50 [3]: 1 to 10 nM

SMILES: NC(=O)c1nnc(Nc2cnn(C3CCCC3)c2)cc1NCc1cccc(F)c1F [Compound 116]
- IC50 [1]: 100 to 1000 nM
- IC50 [2]: > 1000 nM
- IC50 [3]: 10 to 100 nM

SMILES: CC(=O)N1CCN(c2ccc(Nc3cc(NCc4cccc(C#N)c4)c(C(N)=O)nn3)cc2)CC1 [Compound 72]
- IC50 [1]: 100 to 1000 nM
- IC50 [2]: > 1000 nM
- IC50 [3]: 10 to 100 nM

SMILES: CC(=O)N1CCN(c2ccc(Nc3cc(NCc4cccc(Cl)c4)c(C(N)=O)nn3)cc2)CC1 [Compound 46]
- IC50 [1]: 100 to 1000 nM
- IC50 [2]: 100 to 1000 nM
- IC50 [3]: 10 to 100 nM

SMILES: CC(C)CNc1cc(Nc2ccc(N3CCNCC3)cc2)nnc1C(N)=O [Compound 15]
- IC50 [1]: > 1000 nM
- IC50 [2]: > 1000 nM
- IC50 [3]: 100 to 1000 nM

SMILES: NC(=O)c1nnc(Nc2ccc(C(=O)N3CCCC3)cn2)cc1NCc1cccc(F)c1 [Compound 73]
- IC50 [1]: 10 to 100 nM
- IC50 [2]: 100 to 1000 nM
- IC50 [3]: 1 to 10 nM

SMILES: CS(=O)(=O)Cc1ccc(Nc2cc(NCc3cccc(F)c3)c(C(N)=O)nn2)cc1 [Compound 85]
- IC50 [1]: 100 to 1000 nM
- IC50 [2]: 100 to 1000 nM
- IC50 [3]: 10 to 100 nM

SMILES: CC(=O)N1CCN(c2ccc(Nc3cc(NCc4ccccc4F)c(C(N)=O)nn3)nc2)CC1 [Compound 28]
- IC50 [1]: 10 to 100 nM
- IC50 [2]: 100 to 1000 nM
- IC50 [3]: 1 to 10 nM

SMILES: CS(=O)(=O)c1ccc(Nc2cc(NCc3cccc(F)c3)c(C(N)=O)nn2)cc1 [Compound 84]
- IC50 [1]: > 1000 nM
- IC50 [2]: > 1000 nM
- IC50 [3]: 100 to 1000 nM

SMILES: CCC(=O)N1CCC(c2ccc(Nc3cc(NCc4ccccc4F)c(C(N)=O)nn3)cc2)CC1 [Compound 25]
- IC50 [1]: > 1000 nM
- IC50 [2]: > 1000 nM
- IC50 [3]: 10 to 100 nM

SMILES: CS(=O)(=O)Cc1ccc(Nc2cc(NC3CCN(c4ccc(C#N)cn4)CC3)c(C(N)=O)nn2)cc1 [Compound 93]
- IC50 [1]: 10 to 100 nM
- IC50 [2]: 10 to 100 nM
- IC50 [3]: 10 to 100 nM

SMILES: CC(C)n1cc(Nc2cc(NCc3cccc4ccsc34)c(C(N)=O)nn2)cn1 [Compound 112]
- IC50 [1]: 10 to 100 nM
- IC50 [2]: 100 to 1000 nM
- IC50 [3]: 1 to 10 nM

SMILES: NC(=O)c1nnc(Nc2ccc(C(=O)N3CCCC3)cc2)cc1NCc1cc(F)cc(F)c1 [Compound 82]
- IC50 [1]: 100 to 1000 nM
- IC50 [2]: 100 to 1000 nM
- IC50 [3]: 1 to 10 nM
